How the values were obtained:
rat FDB muscle [1] = assay: Isometric tension force/frequency in rat FDB muscle in vitro; details: 10 μM, FIG. 1
Description: Adult male Sprague-Dawley rats (Charles River) between 250 and 300 g were anesthetized with a mixture of isoflurane gas and oxygen and quickly euthanized by cardiac excision. Hind feet were quickly removed at the ankle and placed in oxygenated Krebs solution at 4° C. (composition: 1 mM NaH2PO4, 5 mM KCl, 2 mM CaCl2, 1 mM MgSO4, 137 mM NaCl, 11 mM glucose and 1 mM NaHCO3). Feet were then pinned out in fresh oxygenated Krebs buffer at room temperature and the skin from the sole of the foot removed with scissors. In rats, a small branch of the main flexor digitorum brevis (FDB) muscle extends from the heel of the foot to the little digit. This was dissected free with small scissors and the tendons at each end of the muscle were cut. The muscle was pinned out in Krebs solution and the surrounding fascia removed. Silk thread was tied with a small loop and then knotted on to the end of each tendon, creating a silk loop at each end of the muscle. This was then hooked on to the fixed lever arm and force transducer of an 801A in vitro analysis system (Aurora Scientific, Ontario, Canada) and perfused with Krebs solution at 30° C.
The effect of 10 μM of Compound A on the force/frequency relationship was measured.

rat FDB muscle [2] = assay: Isometric fatigue protocol in isolated rat FDB muscle; details: 5 μM
Description: The isometric fatigue protocol was based on published studies (Germinario et al, 2004). Isolated rat FDB muscles were incubated at 4° C. with either 0.1% DMSO Krebs buffer or buffer containing 5 μM Compound A for 30 minutes. The tissues were then transferred to an isometric force transducer at 30° C. with the same concentration of DMSO or Compound A. Muscles were stimulated via field electrodes with supra maximal voltage to tetanus (120 Hz stimulation, 1 ms pulses, 350 ms duration) every minute and the length adjusted to achieve maximal tension development (Lo) which was recorded. The stimulation frequency was adjusted to achieve 50% of maximal force for each tissue: The average stimulation frequency required to achieve FMax 50% (mean +/− sd) for 0.1% DMSO was: 32.4 +/− 3.3 Hz, and for 5 μM Compound A it was 20.5 +/− 4.9 Hz. The muscles were then stimulated every six seconds for 15 minutes with field electrodes (1 ms stimulus, 350 ms trains) which produced a rapid drop in developed force over the course of 900 seconds for both the control fibers and Compound A fibers, with the control group showing a greater and more rapid drop in tension than the Compound A group.

rat EDL muscle = assay: Fatigue in rat EDL muscle following femoral artery ligation (FAL); assay type: in vivo; details: for average stimulation frequency for force production similar to pre-dose: vehicle 30 Hz
Text: Rats were placed under anesthesia using isoflurane and the skin around the experimental leg was removed. The distal end of the EDL muscle and its associated tendon were then isolated. The rat was then placed on the platform of an Aurora in-situ muscle analysis rig (806C), maintained at body temperature via a circulating water system. The knee was immobilized in a clamp between two sharpened screws and the distal tendon cut and tied to the arm of a force transducer (Aurora Scientific, Ontario, Canada) using a silk suture. The muscle was stimulated directly via the peroneal nerve. For isolation of the nerve, a 1 cm incision was made at the upper thigh and the overlying gastrocnemius muscle was cut to expose an approximate 5 mm stretch of the peroneal nerve. This was then dissected free of surrounding connective tissue and a pair of stainless steel needle electrodes (0.10 mm) were hooked around the exposed nerve. Muscle contractile properties were assessed by applying an electrical current to the nerve and recording the force generated by the muscle via a servomotor. The muscle length was adjusted to produce the maximum isometric force (Lo) after sub-maximal stimulation (30 Hz, 1 ms pulses, 350 ms train duration). Once Lo had been established, the nerve was stimulated every 2 minutes with a 30 Hz train (1 ms stimuli, 350 ms duration) for the course of the experiment. This preparation was stable for 4-6 hours.
With the rat in situ EDL muscle preparation described in Example 3, a fatiguing protocol was utilized where muscle was stimulated for 600 seconds. Vehicle-treated muscle was electrically stimulated at 30 Hz while the stimulation frequency was reduced in Compound A treated rats to ensure similar force production to pre-dose levels, prior to femoral artery ligation (average stimulation frequency of 29 and 26Hz, for 0.5 mg/kg and 1 mg/kg Compound A, respectively). This protocol produced a robust and reproducible fatigue in EDL muscle following femoral artery ligation, with a transient increase to 136.0±6.8% of initial force over the first 90-100 seconds, followed by a rapid drop in force before stabilization at approximately 40% of initial force. The initial rise in tension is believed to be due to Pi-induced increases in free intracellular Ca^2+ due to inhibition of sarco(endo)plasmic reticulum Ca^2+-ATPases (SERCAs) pumping into the SR (Allen, Physiol Rev 88:287-332, 2008). Following ligation of the femoral artery (R. A. Challiss et al. Biochem J. 1986 Dec. 1; 240(2):395-401) Compound A was administered in solution (50% PEG300/10% EtOH/40% Cavitron formulation) via a jugular vein catheter as a single slow bolus over a 2 min period.
Time for force to decrease to 50% of initial force was lengthened from 259±30 seconds to […] (P<0.0001, T-test).

[3] = stimulated every six seconds for 15 minutes

`C#Cc1cnc2nc(O)n(C(CC)CC)c2n1` [Compound A, 6-ethynyl-1-(pentan-3-yl)-1H-imidazo[4,5-b]pyrazin-2-ol] was tested, and the “sub-maximal force development (force/frequency relationship)” value (rat FDB muscle [1]) was “increased sub-maximal force development”, the “average stimulation frequency required to achieve FMax 50% (mean +/- sd)” value (rat FDB muscle [2]) was 20.5 +/− 4.9 Hz and the “force at 900 seconds, % of fMax” value (rat FDB muscle [2]; [3]) was 28.4±1.2 % f Max. For the same compound, the “force at 900 seconds, % of initial tension” value (rat FDB muscle [2]; [3]) was 53.9±2.1 % of initial tension, the “average stimulation frequency for force production similar to pre-dose” value (rat EDL muscle; 0.5 mg/kg) was 29 Hz and the “average stimulation frequency for force production similar to pre-dose” value (rat EDL muscle; 1 mg/kg) was 26 Hz. The “time of rise to initial increase in force” value (rat EDL muscle; FAL rats) was 160 to 170 s, the “time to fatigue and tension-generating capacity” value (rat EDL muscle; FAL rats vs vehicle, FIG. 5) was “dose-dependent increase” and the “initial increase in force” value (rat EDL muscle; FAL rats, jugular vein bolus) was 156.3±10.4 % of initial force. The “time for force to decrease to 50% of initial force” value (rat EDL muscle; FAL rats, vehicle 259±30) was 752 ± 64 s.

— patent publication US20190167676A1, “METHODS FOR IMPROVING RESISTANCE TO SKELETAL MUSCLE FATIGUE” (Cytokinetics, Inc., priority 2012, published 2019)
